Measurements as given in ChEMBL document CHEMBL4321863, “Exploring Structural Determinants of Inhibitor Affinity and Selectivity in Complexes with Histone Deacetylase 6” (J Med Chem, 2020).
Non-standard residues stand in square brackets, D forms with d. Residues, ends and D or L forms follow the SMILES beside them. *: point of attachment. 3Amb = NCc1cccc(C(=O)O)c1; 4Amb = NCc1ccc(C(=O)O)cc1; Cbz = O=C(OCc1ccccc1)*; NHOH = ON*

What was measured:
[1] = biological target: T1, Protein deacetylase HDAC6 (Homo sapiens, UniProt Q9UBN7); experiment: Inhibition of human N-terminal GST-tagged HDAC6 expressed in baculovirus infected insect cells using RHKKAc as substrate
T1 sequence (Q9UBN7 whole entry): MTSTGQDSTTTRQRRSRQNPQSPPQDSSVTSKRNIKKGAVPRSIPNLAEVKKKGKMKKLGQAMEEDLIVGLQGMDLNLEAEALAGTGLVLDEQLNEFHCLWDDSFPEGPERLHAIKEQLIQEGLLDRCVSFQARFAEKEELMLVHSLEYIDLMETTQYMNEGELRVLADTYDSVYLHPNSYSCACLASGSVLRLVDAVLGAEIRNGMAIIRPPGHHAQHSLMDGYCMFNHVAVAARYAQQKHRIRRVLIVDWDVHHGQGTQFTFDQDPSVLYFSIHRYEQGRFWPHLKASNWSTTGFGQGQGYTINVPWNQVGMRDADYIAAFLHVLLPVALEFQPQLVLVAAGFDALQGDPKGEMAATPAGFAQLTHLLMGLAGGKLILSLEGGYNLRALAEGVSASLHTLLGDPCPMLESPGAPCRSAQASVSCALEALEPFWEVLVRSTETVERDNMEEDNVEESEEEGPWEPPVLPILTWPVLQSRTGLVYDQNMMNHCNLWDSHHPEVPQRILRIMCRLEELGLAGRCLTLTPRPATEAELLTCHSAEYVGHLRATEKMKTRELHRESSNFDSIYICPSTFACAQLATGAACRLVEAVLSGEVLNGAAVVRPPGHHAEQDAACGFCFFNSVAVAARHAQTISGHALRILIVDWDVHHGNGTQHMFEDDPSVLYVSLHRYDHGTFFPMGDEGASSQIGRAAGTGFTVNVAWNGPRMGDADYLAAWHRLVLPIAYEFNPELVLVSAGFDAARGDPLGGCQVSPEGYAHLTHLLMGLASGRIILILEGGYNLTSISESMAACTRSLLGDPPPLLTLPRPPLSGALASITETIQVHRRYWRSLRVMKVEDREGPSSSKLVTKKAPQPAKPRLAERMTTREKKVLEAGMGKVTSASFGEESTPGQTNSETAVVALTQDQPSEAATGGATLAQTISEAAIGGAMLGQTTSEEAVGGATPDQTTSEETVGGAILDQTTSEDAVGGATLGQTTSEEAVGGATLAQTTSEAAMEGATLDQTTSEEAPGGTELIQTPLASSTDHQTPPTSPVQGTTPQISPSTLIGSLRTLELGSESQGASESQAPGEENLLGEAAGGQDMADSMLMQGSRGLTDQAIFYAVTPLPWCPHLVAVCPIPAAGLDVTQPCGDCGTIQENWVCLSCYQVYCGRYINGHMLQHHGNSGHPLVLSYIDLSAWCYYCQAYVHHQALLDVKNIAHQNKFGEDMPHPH

[2] = biological target: T1, Protein deacetylase HDAC6; experiment: Inhibition of HDAC6 CD2 domain (unknown origin)
[3] = biological target: T1, Protein deacetylase HDAC6; experiment: Inhibition of recombinant C-terminal FLAG-tagged HDAC6 (unknown origin) using Ac-NH-GGK(Ac)-AMC as substrate measured after 180 mins by fluorescence assay

| IC50 [1] [nM] | IC50 [2] [nM] | Structure (SMILES) | further results |
| --- | --- | --- | --- |
| – | 335 | O=C(CNC(=O)CNC(=O)OCc1ccccc1)NCc1ccc(C(=O)NO)cc1 (Cbz-Gly-Gly-[4Amb]-{NHOH}) | – |
| – | 8420 | CC(C)C[C@H](NC(=O)OCc1ccccc1)C(=O)N[C@@H](C)C(=O)NCc1cccc(C(=O)NO)c1 (Cbz-Leu-Ala-[3Amb]-{NHOH}) | – |
| 314 | – | CC(C)C[C@H](NC(=O)OCc1ccccc1)C(=O)N[C@@H](C)C(=O)NCc1ccc(C(=O)NO)cc1 (Cbz-Leu-Ala-[4Amb]-{NHOH}) | – |

More lines, now with the values behind:

| Structure (SMILES) | IC50 [1] [nM] | IC50 [2] [nM] | further results |
| --- | --- | --- | --- |
| O=C(NO)c1ccc(CNC(=O)c2cccnc2C(F)(F)F)cc1 | 17 | – | – |
| CC1(C)[C@@H]2CC[C@@H](CNCc3ccc(C(=O)NO)cc3)[C@H]1C2 | – | 149 | – |
| CN(C)Cc1ccc(S(=O)(=O)n2ccc(/C=C/C(=O)NO)c2)cc1 [RESMINOSTAT] | – | – | IC50 [3]: 72 nM |
